In US20250115654A1, “PHARMACEUTICAL COMPOSITION OF GLP-1 RECEPTOR AND GIP RECEPTOR DUAL AGONIST, AND USE THEREOF” (FUJIAN SHENGDI PHARMACEUTICAL CO., LTD., priority 2021, published 2025):
Numbered stars: 1 amine (or outer) side, 2 acyl side, 3 side chain; on linkers, the order of the positions; unused ones are H or OH. Square brackets hold non-standard residues; d marks the D form. Side chains are listed from the residue outwards. Peptide text beside a SMILES is read from it. * marks the point of attachment. C20 diacid = O=C(O)CCCCCCCCCCCCCCCCCCC(=O)*; γGlu = O=C(O)[C@H](CCC(=O)[*:2])N[*:1]; AEEA = NCCOCCOCC(=O)O; Aib = CC(C)(N)C(=O)O

Key:
DIO mice = test: Food intake of DIO (diet-induced obesity) mice; assay type: in vivo, C57BL/6 mice
Description: High-fat food-induced-obesity male C57BL/6 mice (weighing 35-55 g, aged 10-12 weeks, purchased from Shanghai Jiesijie Laboratory Animal Co., Ltd.) were tested. […] According to the experimental design, the body weight of each mouse was measured and recorded on day 0, day 3, day 6, and so on to day 27, the average body weight of each group of mice was calculated, and body weight change curves were plotted by taking the body weight on the first day as the standard. At the end, the fat and other visceral organs of each part of the mice were taken out and weighed, and the viscera/brain ratio for fat in each part of each mouse was calculated. The effect of the drug on the fat was determined by comparing the change in the viscera/brain ratio for fat of different parts of each group of mice.
The food intake of mice in each group was measured daily during the experiment.

human GLP-1R = human GLP-1R (Homo sapiens, UniProt P43220); test: Agonist activity against GLP-1R, cAMP HTRF in CHO-K1/GLP-1R/CRE-luc stable cells; conditions: Activity against human GLP-1R (EC50 nM), Table 6 run
human GLP-1R, sequence (P43220 24-463): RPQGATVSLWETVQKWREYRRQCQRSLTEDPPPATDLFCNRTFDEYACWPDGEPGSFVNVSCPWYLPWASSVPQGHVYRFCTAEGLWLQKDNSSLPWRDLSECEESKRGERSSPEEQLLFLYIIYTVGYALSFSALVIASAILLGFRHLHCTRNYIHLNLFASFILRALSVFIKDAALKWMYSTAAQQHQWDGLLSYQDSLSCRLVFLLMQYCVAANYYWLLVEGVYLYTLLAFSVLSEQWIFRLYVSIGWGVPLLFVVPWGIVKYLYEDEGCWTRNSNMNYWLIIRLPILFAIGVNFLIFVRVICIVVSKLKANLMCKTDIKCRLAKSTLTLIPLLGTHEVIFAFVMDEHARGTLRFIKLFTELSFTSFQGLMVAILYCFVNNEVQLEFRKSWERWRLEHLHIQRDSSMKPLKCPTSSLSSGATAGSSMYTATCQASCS

CC[C@H](C)[C@H](NC(=O)[C@H](CCCCN)NC(=O)[C@H](CCC(=O)O)NC(=O)[C@H](CCCCNC(=O)COCCOCCNC(=O)COCCOCCNC(=O)CC[C@H](NC(=O)CCCCCCCCCCCCCCCCCCC(=O)O)C(=O)O)NC(=O)[C@H](Cc1ccc(O)cc1)NC(=O)[C@@H](NC(=O)[C@H](CO)NC(=O)[C@H](Cc1ccc(O)cc1)NC(=O)[C@H](CC(=O)O)NC(=O)[C@H](CO)NC(=O)[C@@H](NC(=O)[C@H](Cc1ccccc1)NC(=O)[C@@H](NC(=O)CNC(=O)[C@H](CCC(=O)O)NC(=O)C(C)(C)NC(=O)[C@@H](N)Cc1ccc(O)cc1)[C@@H](C)O)[C@@H](C)O)[C@@H](C)CC)C(=O)N[C@@H](C)C(=O)N[C@@H](C)C(=O)N[C@@H](CCC(N)=O)C(=O)N[C@@H](CCC(=O)O)C(=O)N[C@@H](Cc1ccccc1)C(=O)N[C@H](C(=O)N[C@@H](CC(N)=O)C(=O)N[C@@H](Cc1c[nH]c2ccccc12)C(=O)N[C@@H](CC(C)C)C(=O)N[C@@H](CC(C)C)C(=O)N[C@@H](C)C(=O)NCC(=O)NCC(=O)N1CCC[C@H]1C(=O)N[C@@H](CO)C(=O)N[C@@H](CO)C(=O)NCC(=O)N[C@@H](C)C(=O)N1CCC[C@H]1C(=O)N1CCC[C@H]1C(=O)N1CCC[C@H]1C(=O)N[C@@H](CO)C(N)=O)C(C)C [Compound 18#] (H-Y[Aib]EGTFTSDYSIYK([AEEA-AEEA-γGlu-C20 diacid])EKIAAQEFVNWLLAGGPSSGAPPPS-NH2)
cumulative food intake (DIO mice; 10 nmol/kg, 28 days after the administration): 46.8 g | daily food intake ration (DIO mice; 10 nmol/kg, day 1 after administration): 0.3 ± 0.2 g | daily food intake ration (DIO mice; 10 nmol/kg, day 1 after administration, listed as 18#): 0.3 g | daily food intake ration (DIO mice; 10 nmol/kg, day 2 after administration): 0.6 ± 0.6 g | daily food intake ration (DIO mice; 10 nmol/kg, day 3 after administration): 1.1 ± 0.7 g | daily food intake ration (DIO mice; 10 nmol/kg, day 4 after administration): 0.7 ± 0.5 g | daily food intake ration (DIO mice; 10 nmol/kg, day 5 after administration): 1.1 ± 0.5 g | daily food intake ration (DIO mice; 10 nmol/kg, day 6 after administration): 1.5 ± 0.8 g | daily food intake ration (DIO mice; 10 nmol/kg, day 7 after administration): 0.8 ± 0.4 g | daily food intake ration (DIO mice; 10 nmol/kg, day 8 after administration): 1.1 ± 0.7 g | daily food intake ration (DIO mice; 10 nmol/kg, day 9 after administration): 2 ± 0.6 g | daily food intake ration (DIO mice; 10 nmol/kg, day 10 after administration): 0.9 ± 0.4 g | daily food intake ration (DIO mice; 10 nmol/kg, day 11 after administration): 1.8 ± 0.8 g | daily food intake ration (DIO mice; 10 nmol/kg, day 12 after administration): 2.4 ± 0.6 g | daily food intake ration (DIO mice; 10 nmol/kg, day 13 after administration): 0.9 ± 0.4 g | daily food intake ration (DIO mice; 10 nmol/kg, day 14 after administration): 1.7 ± 0.7 g | daily food intake ration (DIO mice; 10 nmol/kg, day 15 after administration): 3 ± 0.9 g | daily food intake ration (DIO mice; 10 nmol/kg, day 16 after administration): 1.2 ± 1 g | daily food intake ration (DIO mice; 10 nmol/kg, day 17 after administration): 2.1 ± 0.9 g | daily food intake ration (DIO mice; 10 nmol/kg, day 18 after administration): 2.9 ± 0.8 g | daily food intake ration (DIO mice; 10 nmol/kg, day 19 after administration): 1.3 ± 0.5 g | daily food intake ration (DIO mice; 10 nmol/kg, day 20 after administration): 2 ± 0.5 g | daily food intake ration (DIO mice; 10 nmol/kg, day 21 after administration): 3.2 ± 0.6 g | daily food intake ration (DIO mice; 10 nmol/kg, day 22 after administration): 1 ± 0.4 g | daily food intake ration (DIO mice; 10 nmol/kg, day 23 after administration): 2.3 ± 0.5 g | daily food intake ration (DIO mice; 10 nmol/kg, day 24 after administration): 2.5 ± 0.6 g | daily food intake ration (DIO mice; 10 nmol/kg, day 25 after administration): 1.6 ± 1.2 g | daily food intake ration (DIO mice; 10 nmol/kg, day 26 after administration): 2.2 ± 0.8 g | daily food intake ration (DIO mice; 10 nmol/kg, day 27 after administration): 3.6 ± 1^ g | daily food intake ration (DIO mice; 10 nmol/kg, day 28 after administration): 1 ± 0.5 g | cumulative food intake (DIO mice; 10 nmol/kg, within 5 days after the administration): 3.9 g | cumulative food intake (DIO mice; 100 nmol/kg, 28 days after the administration): 36.7 g | daily food intake ration (DIO mice; 100 nmol/kg, day 1 after administration): 0.2 ± 0.1 g | daily food intake ration (DIO mice; 100 nmol/kg, day 1 after administration, listed as 18#): 0.2 g | daily food intake ration (DIO mice; 100 nmol/kg, day 2 after administration): 0.1 ± 0.1 g | daily food intake ration (DIO mice; 100 nmol/kg, day 3 after administration): 0.4 ± 0.1 g | daily food intake ration (DIO mice; 100 nmol/kg, day 4 after administration): 0.4 ± 0.2 g | daily food intake ration (DIO mice; 100 nmol/kg, day 5 after administration): 0.6 ± 0.2 g | daily food intake ration (DIO mice; 100 nmol/kg, day 6 after administration): 0.7 ± 0.3 g | daily food intake ration (DIO mice; 100 nmol/kg, day 7 after administration): 0.5 ± 0.2 g | daily food intake ration (DIO mice; 100 nmol/kg, day 8 after administration): 0.7 ± 0.5 g | daily food intake ration (DIO mice; 100 nmol/kg, day 9 after administration): 0.9 ± 0.6 g | daily food intake ration (DIO mice; 100 nmol/kg, day 10 after administration): 0.9 ± 0.6 g | daily food intake ration (DIO mice; 100 nmol/kg, day 11 after administration): 1.1 ± 0.5 g | daily food intake ration (DIO mice; 100 nmol/kg, day 12 after administration): 2 ± 1 g | daily food intake ration (DIO mice; 100 nmol/kg, day 13 after administration): 1.3 ± 0.7 g | daily food intake ration (DIO mice; 100 nmol/kg, day 14 after administration): 1.7 ± 0.5 g | daily food intake ration (DIO mice; 100 nmol/kg, day 15 after administration): 2 ± 0.4 g | daily food intake ration (DIO mice; 100 nmol/kg, day 16 after administration): 1 ± 0.3 g | daily food intake ration (DIO mice; 100 nmol/kg, day 17 after administration): 1.6 ± 0.3 g | daily food intake ration (DIO mice; 100 nmol/kg, day 18 after administration): 2 ± 0.4 g | daily food intake ration (DIO mice; 100 nmol/kg, day 19 after administration): 1.4 ± 0.2 g | daily food intake ration (DIO mice; 100 nmol/kg, day 20 after administration): 1.8 ± 0.3 g | daily food intake ration (DIO mice; 100 nmol/kg, day 21 after administration): 2.4 ± 0.3 g | daily food intake ration (DIO mice; 100 nmol/kg, day 22 after administration): 1.4 ± 0.5 g | daily food intake ration (DIO mice; 100 nmol/kg, day 23 after administration): 2.1 ± 0.5 g | daily food intake ration (DIO mice; 100 nmol/kg, day 24 after administration): 2.3 ± 0.4 g | daily food intake ration (DIO mice; 100 nmol/kg, day 25 after administration): 1.5 ± 0.3 g | daily food intake ration (DIO mice; 100 nmol/kg, day 26 after administration): 1.6 ± 0.4 g | daily food intake ration (DIO mice; 100 nmol/kg, day 27 after administration): 2.8 ± 0.3 g | daily food intake ration (DIO mice; 100 nmol/kg, day 28 after administration): 1.2 ± 0.4 g | cumulative food intake (DIO mice; 100 nmol/kg, within 5 days after the administration): 1.8 g | EC50 (human GLP-1R): 0.013 nM
